Laboratory results taken from patent US11802120B2, “Fused cyclic urea derivatives as CRHR2 antagonist” (RaQualia Pharma Inc., priority 2018, dated 2023).

Assays:
Assay type in all cases: cell-based
human CRHR2-alpha = biological target: T1, human CRHR2-alpha (Homo sapiens, UniProt Q13324); experiment: cAMP functional assay for human CRHR2 (LANCE Ultra cAMP, TR-FRET); details: CHO-K1 cells expressing human CRHR2-alpha, agonist human urocortin2 at EC80, cAMP; read-out: IC50 against CRHR2
T1 sequence (Q13324 1-411): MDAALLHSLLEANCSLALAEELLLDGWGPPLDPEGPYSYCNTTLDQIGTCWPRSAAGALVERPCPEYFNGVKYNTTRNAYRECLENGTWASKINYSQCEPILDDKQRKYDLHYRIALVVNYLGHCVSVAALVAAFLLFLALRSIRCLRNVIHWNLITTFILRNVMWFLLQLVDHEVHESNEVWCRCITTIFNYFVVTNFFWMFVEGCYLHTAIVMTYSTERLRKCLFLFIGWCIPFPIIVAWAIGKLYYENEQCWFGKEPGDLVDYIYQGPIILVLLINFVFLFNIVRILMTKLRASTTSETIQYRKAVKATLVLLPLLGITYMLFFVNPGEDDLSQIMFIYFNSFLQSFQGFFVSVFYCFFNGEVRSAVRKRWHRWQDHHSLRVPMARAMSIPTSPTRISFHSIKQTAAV
Outline: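 CHO-K1 cells stably expressing each receptor, serum-starved and cryopreserved, were preincubated with compound 30 min at 25° C in HBSS buffer with 0.5 mM IBMX, pH 7.4, then stimulated 30 min with EC80 agonist (urocortin2 for CRHR2, CRF for CRHR1). cAMP read by TR-FRET; IC50 from percent-inhibition curves.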

human CRHR1-beta = biological target: T2, human CRHR1-beta (Homo sapiens, UniProt P34998); experiment: cAMP functional assay for human CRHR1 (LANCE Ultra cAMP, TR-FRET); details: CHO-K1 cells expressing human CRHR1-beta, agonist CRF at EC80, cAMP; read-out: IC50 against CRHR1
T2 sequence (P34998 24-444 isoform P34998-1 limits assumed): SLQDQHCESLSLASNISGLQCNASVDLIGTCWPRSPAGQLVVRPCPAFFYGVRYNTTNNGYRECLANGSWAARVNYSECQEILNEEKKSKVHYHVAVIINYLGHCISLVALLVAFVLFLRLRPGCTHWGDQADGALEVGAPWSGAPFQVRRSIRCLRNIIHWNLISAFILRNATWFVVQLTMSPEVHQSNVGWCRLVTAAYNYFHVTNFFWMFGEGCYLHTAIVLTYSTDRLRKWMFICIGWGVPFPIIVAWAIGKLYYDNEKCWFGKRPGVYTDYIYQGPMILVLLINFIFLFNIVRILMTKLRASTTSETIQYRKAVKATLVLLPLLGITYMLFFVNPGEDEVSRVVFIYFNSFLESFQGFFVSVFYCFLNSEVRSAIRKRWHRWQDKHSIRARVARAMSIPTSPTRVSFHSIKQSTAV
Method: cAMP functional assay for human CRHR1 and CRHR2
The ability of the compounds of this invention to inhibit either CRHR2 or CRHR1 is assessed by 3′,5′-cyclic adenosine monophosphate (cAMP) production in cells using the LANCE Ultra cAMP assay kit (ParkinElmer), which are designed based on the homogeneous time-resolved fluorescence resonance energy transfer (TR-FRET) immunoassay.
CHO-K1 (Chinese hamster ovary) cells stably expressing either human CRHR2-alpha (DiscoveRX, Cat. 95-0048C2) or human CRHR1-beta (DiscoveRX, Cat. 95-0047C2) are grown in HAM's F12 media supplemented with 10% fetal bovine serum (FBS), 100 units/mL penicillin, 100 microg/mL hygromycin and 0.5 microg/mL geneticin at 37° C. in 5% CO2 humidified incubator to 80% confluence. After 7 hours starvation treatment in culture media containing 0.1% FBS, the cells are washed with Hanks balanced salt solution (HBSS) and cryopreserved.
For cAMP assay, frozen cells are thawed and washed with HBSS, followed by resuspended in assay buffer (HBSS containing 0.1% bovine serum albumin, 0.5 mM isobutylmethylxanthine and 5 mM Hepes, pH 7.4) at the appropriate concentration for the assay. The cell suspensions are plated on 384-well microplates (Greiner Bio-One) at a density of 4,000 cells per well. After preincubating the cells with various concentrations of the compounds for 30 min at 25° C., an assay buffer containing EC80 concentration of each agonist is added and the cells are incubated for 30 min at 25° C. Human urocortin2 (Peptide Institute) and CRF (Peptide Institute) are used as agonists for CRHR2 and CRHR1, respectively. For the termination of assay, europium-labeled cAMP tracer and ULight (registered trademark) dye labeled cAMP antibodies, both prepared with Lance-Ultra cAMP detection reagent (Perkin Elmer) are added in the plate and incubate for 60 min at 25° C. After incubation, TR-FRET signal is detected by EnVision plate reader (PerkinElmer). The IC50 values for compounds are calculated from dose-response curves by fitting the percent inhibition using XLfit (ID Business Solutions).

CRHR2 = biological target: T3, CRHR2 (Homo sapiens, UniProt Q13324); experiment: CRHR2 antagonistic activity (inhibitory activity against CRHR2)
T3 sequence (Q13324 1-411): T1 sequence (Q13324 1-411)

| IC50 (human CRHR2-alpha) [nM] | IC50 (human CRHR1-beta) [nM] | IC50 (CRHR2) [nM] | Compound |
| --- | --- | --- | --- |
| < 300 | < 1000 | – | COc1cc(-n2c(=O)n(C[C@H]3CC[C@H](NC(=O)c4cc(Cl)cnc4C)CC3)c3ccccc32)ccn1 [Example 45, 5-chloro-N-((1r,4r)-4-((3-(2-methoxypyridin-4-yl)-2-oxo-2,3-dihydro-1H-benzo[d]imidazol-1-yl)methyl)cyclohexyl)-2-methylnicotinamide] |
| < 300 | < 1000 | – | CC(=O)c1ccc(-n2c(=O)n(C[C@H]3CC[C@H](NC(=O)c4cc(Cl)cnc4C)CC3)c3ccccc32)cc1 [Example 18, N((1r,4r)-4-((3-(4-acetylphenyl)-2-oxo-2,3-dihydro-1H-benzo[d]imidazol-1-yl)methyl)cyclohexyl)-5-chloro-2-methylnicotinamide] |
| < 300 | < 1000 | – | COc1ccc(-n2c(=O)n(C[C@H]3CC[C@H](NC(=O)c4cc(Cl)cnc4C)CC3)c3ccccc32)cc1 [Example 27, 5-chloro-N-((1r,4r)-4-((3-(4-methoxyphenyl)-2-oxo-2,3-dihydro-1H-benzo[d]imidazol-1-yl)methyl)cyclohexyl)-2-methylnicotinamide] |
| < 300 | < 1000 | – | Cc1ncc(Cl)cc1C(=O)N[C@H]1CC[C@H](Cn2c(=O)n(-c3ccc(OCCO)nc3)c3ccccc32)CC1 [Example 50, 5-chloro-N-((1r,4r)-4-((3-(6-(2-hydroxyethoxy)pyridin-3-yl)-2-oxo-2,3-dihydro-1H-benzo[d]imidazol-1-yl)methyl)cyclohexyl)-2-methylnicotinamide] |
| – | – | 390 | Cc1ncc(Cl)cc1C(=O)N[C@H]1CC[C@H](Cn2c(=O)n(-c3ccccc3)c3ccccc32)CC1 [Example 1, 5-chloro-2-methyl-N-((1r,4r)-4-((2-oxo-3-phenyl-2,3-dihydro-1H-benzo[d]imidazol-1-yl)methyl)cyclohexyl)nicotinamide] |
| < 300 | < 1000 | – | Cc1ncc(Cl)cc1C(=O)N[C@H]1CC[C@H](Cn2c(=O)n(-c3ccc(N(C)CCCO)nc3)c3ccccc32)CC1 [Example 94, 5-chloro-N-((1r,4r)-4-((3-(6-((3-hydroxypropyl)(methyl)amino)pyridin-3-yl)-2-oxo-2,3-dihydro-1H-benzo[d]imidazol-1-yl)methyl)cyclo-hexyl)-2-methylnicotinamide] |
| < 300 | – | 180 | Cc1ncc(Cl)cc1C(=O)N[C@H]1CC[C@H](Cn2c(=O)n(Cc3ccccc3)c3ccccc32)CC1 [Example 2, N-((1r,4r)-4-((3-benzyl-2-oxo-2,3-dihydro-1H-benzo[d]imidazol-1-yl)methyl)cyclohexyl)-5-chloro-2-methylnicotinamide] |
| – | – | 3000 | CCn1c(=O)n(C[C@H]2CC[C@H](NC(=O)c3cc(Cl)cnc3C)CC2)c2ccccc21 [Example 2.46, reference compound] |
| < 300 | < 1000 | – | COc1ccccc1-n1c(=O)n(C[C@H]2CC[C@H](NC(=O)c3cc(Cl)cnc3C)CC2)c2ccccc21 [Example 34, 5-chloro-N-((1r,4r)-4-((3-(2-methoxyphenyl)-2-oxo-2,3-dihydro-1H-benzo[d]imidazol-1-yl)methyl)cyclohexyl)-2-methylnicotinamide] |
| < 300 | < 1000 | – | Cc1ccc(-n2c(=O)n(C[C@H]3CC[C@H](NC(=O)c4cc(Cl)cnc4C)CC3)c3ccccc32)c(C)n1 [Example 32, 5-chloro-N-((1r,4r)-4-((3-(2,6-dimethylpyridin-3-yl)-2-oxo-2,3-dihydro-1H-benzo[d]imidazol-1-yl)methyl)cyclohexyl)-2-methylnicotinamide] |
| < 300 | < 1000 | – | Cc1ncc(Cl)cc1C(=O)N[C@H]1CC[C@H](Cn2c(=O)n(-c3ccc(F)cc3)c3ccccc32)CC1 [Example 15, 5-chloro-N-((1r,4r)-4-((3-(4-fluorophenyl)-2-oxo-2,3-dihydro-1H-benzo[d]imidazol-1-yl)methyl)cyclohexyl)-2-methylnicotinamide] |
| < 300 | < 1000 | – | CNc1ccc(-n2c(=O)n(C[C@H]3CC[C@H](NC(=O)c4cc(Cl)cnc4C)CC3)c3ccccc32)cn1 [Example 91, 5-chloro-2-methyl-N-((1r,4r)-4-((3-(6-(methylamino)pyridin-3-yl)-2-oxo-2,3-dihydro-1H-benzo[d]imidazol-1-yl)methyl)cyclohexyl)nicotinamide] |
| < 300 | < 1000 | – | Cc1ncc(Cl)cc1C(=O)N[C@H]1CC[C@H](Cn2c(=O)n(-c3ccc(C(N)=O)nc3)c3ccccc32)CC1 [Example 62, 5-(3-(((1r,4r)-4-(5-chloro-2-methylnicotinamido)cyclohexyl)methyl)-2-oxo-2,3-dihydro-1H-benzo[d]imidazol-1-yl)picolinamide] |
| – | – | 13000 | Cc1ncc(Cl)cc1C(=O)N[C@H]1CC[C@H](Cn2c(=O)n(C)c3ccccc32)CC1 [Example 2.50, reference compound] |
| < 300 | < 1000 | – | Cc1ncc(Cl)cc1C(=O)N[C@H]1CC[C@H](Cn2c(=O)n(-c3ccc(N(C)C)nn3)c3ccccc32)CC1 [Example 67, 5-chloro-N-((1r,4r)-4-((3-(6-(dimethylamino)pyridazin-3-yl)-2-oxo-2,3-dihydro-1H-benzo[d]imidazol-1-yl)methyl)cyclohexyl)-2-methylnicotinamide] |
| < 300 | < 1000 | – | Cc1ccc(-n2c(=O)n(C[C@H]3CC[C@H](NC(=O)c4cc(Cl)cnc4C)CC3)c3ccccc32)cc1 [Example 25, 5-chloro-2-methyl-N-((1r,4r)-4-((2-oxo-3-(p-tolyl)-2,3-dihydro-1H-benzo[d]imidazol-1-yl)methyl)cyclohexyl)nicotinamide] |
| < 300 | < 1000 | – | CCNc1ccc(-n2c(=O)n(C[C@H]3CC[C@H](NC(=O)c4cc(Cl)cnc4C)CC3)c3ccccc32)cn1 [Example 92, 5-chloro-N-((1r,4r)-4-((3-(6-(ethylamino)pyridin-3-yl)-2-oxo-2,3-dihydro-1H-benzo [d]imidazol-1-yl)methyl)cyclohexyl)-2-methylnico-tinamide] |
| – | – | 3100 | Cc1ncc(Cl)cc1C(=O)N[C@H]1CC[C@H](Cn2c(=O)n(C3CCCCC3)c3ccccc32)CC1 [reference compound (A), reference compound] |
| < 300 | < 1000 | – | Cc1ncc(Cl)cc1C(=O)N[C@H]1CC[C@H](Cn2c(=O)n(-c3ccc(N(C)CCO)nc3)c3ccccc32)CC1 [Example 64, 5-chloro-N-((1r,4r)-4-((3-(6-((2-hydroxyethyl)(methyl)amino)pyridin-3-yl)-2-oxo-2,3-dihydro-1H-benzo[d]imidazol-1-yl)methyl)cyclohexyl)-2-methylnicotinamide] |
| < 300 | < 1000 | – | CNC(=O)c1ccc(-n2c(=O)n(C[C@H]3CC[C@H](NC(=O)c4cc(Cl)cnc4C)CC3)c3ccccc32)cn1 [Example 63, 5-(3-(((1r,4r)-4-(5-chloro-2-methylnicotinamido)cyclohexyl)methyl)-2-oxo-2,3-dihydro-1H-benzo[d]imidazol-1-yl)-N-methylpicolinamide] |
